Literature values as cited in US20140335365A1, “GYPSUM BOARD HAVING MOLD RESISTANCE” (priority 2007, published 2014).
Like-named read-outs stand apart in the source and are kept apart here.

Row | Compound | water solubility | water solubility (Table 1, anti-mold agents used)
1 | CCCCNC(=O)OCC#CI [IPBC, 3-iodo-2-propyl butyl carbamate] | 156 ppm | 156 ppm
2 | [O-][n+]1ccccc1[S][Na] [SPT, (2-pyridinethiol-1-oxide) sodium] | 530000 ppm | 530000 ppm
3 | c1ccc2[nH]c(-c3cscn3)nc2c1 [TBZ, 2-(4-thiazolyl)-benzimidazole] | 30 ppm | 30 ppm
4 | N#CSCSc1nc2ccccc2s1 [TCMTB, 2-(4-thiocyanomethylthio)benzothiazole] | 330 ppm | 
5 | [O-]n1ccccc1=S.[O-]n1ccccc1=S.[Zn+2] [ZPT, Bis[1-hydroxy-2(1H)pyridinethionato]zinc] | 15 ppm | 
6 | Cc1ccc(S(=O)(=O)C(I)I)cc1 [diiodomethyl-p-tolylsulfone, 1-[(diiodomethyl)sulfonyl]-4-methylbenzene] | 100 ppm | 
7 | O=C1c2ccccc2C(=O)N1SC(F)(Cl)Cl [fluor-folpet, N-(fluorodichloromethylthio)-phthalimide] | insoluble | 
8 | Oc1cc(Cl)ccc1Oc1ccc(Cl)cc1Cl [triclosan, 2,4,4′-trichloro-2′-hydroxydiphenylether] | 10 ppm | 
